This is an account of results in patent US20180333415A1, “THERAPEUTIC METHODS” (REGENTS OF THE UNIVERSITY OF MINNESOTA, priority 2017, published 2018).

Each structure is given as a SMILES string. pIC50: −log10 of the molar value.

For series [1], the system named is various cancer cell lines including colon/rectal, skin, lung and the breast cancer cell line SK-BR3. Conditions: lung and SK-BR3 (overexpresses HER2) cell lines, WO2008/150118; cited from earlier work.
Another series has as its system MCF7. Briefly: Measurement of OCR and ECAR (XF Extracellular Flux Analyzer). It is filed as cell-based. Conditions: MCF7, poziotinib 40 and 80 uM, endpoint A+270 minutes; P=0.0286 (40 uM), P=0.0001 (80 uM); normalized to 6th measurement DMSO control, n=5, FIG. 4. How it is done:
Cells were maintained in growth medium consisting of 10% FBS at 37° C. with 5% CO2 and seeded at 30,000 cells per well in XF24-well cell culture microplates (Seahorse Bioscience, North Billirica, Ma.). Concentrated stocks of poziotinib were prepared in DMSO. Poziotinib was diluted to 10× working concentration in XF assay medium (a non-buffered medium including 2 mM L-glutamine but no sodium bicarbonate (buffering agent), glucose, or sodium pyruvate). Assays were performed in the XF Extracellular Flux Analyzer (Seahorse Bioscience), which measures uptake and excretion of metabolic end products in real time. Oxygen consumption rate (OCR) and extracellular acidification rate (ECAR) were measured using an XF Assay Kit. OCR is reported in pmoles/minute and ECAR in mpH/minute. Before analysis, the cells were switched from culture medium to XF assay medium. After baseline measurements, 75 μl of poziotinib prepared in assay medium was injected into each well to reach final working concentrations. After addition of poziotinib, OCR and ECAR were measured at 18-minute intervals. There were 5 replicates performed for each data point.
OCR was reduced by poziotinib vs. DMSO and was significant at the endpoint of A+270 minutes. […] Results are normalized to the 6th measurement DMSO control and expressed as mean ±S.D. (n=5) (FIG. 4).

In another series the target is CYP3A4 (Homo sapiens, UniProt P08684). Briefly: Inhibition of CYP3A4 supersome-mediated EET biosynthesis. It is filed as biochemical. Conditions: CYP3A4 supersomes, read-out: IC50 for inhibition of EET synthesis. The procedure:
(§1) Poziotinib was purchased from a commercial source (Selleck Chem catalog number S7358). Assays were conducted using standard techniques that are known in the literature including those described in US Patent Publication U.S. 2015/0342909.
(§2) Poziotinib was tested for inhibition of proliferation of the MCF-7 (HER2 negative) cell line in complete media. The IC50 for inhibition of growth was determined to be approximately 3 μM (FIG. 1). Poziotinib was tested for inhibition of CYP2C8 supersome-mediated EET biosynthesis. The IC50 for inhibition of EET synthesis was determined to be approximately 10 μM (FIG. 2). Poziotinib was tested for inhibition of CYP3A4 supersome-mediated EET biosynthesis. The IC50 for inhibition of EET synthesis was determined to be approximately 10 µM (FIG. 2).

The target of another series is EGFR type I kinase (Homo sapiens, UniProt P00533). Particulars: as described in WO2008/150118; cited from earlier work.
In series [2] the test system is MCF-7 (HER2 negative) cell line. Briefly: Inhibition of proliferation of MCF-7 cell line in complete media. Particulars: Homo sapiens, MCF7, FIG. 1, read-out: IC50 for inhibition of growth. It is filed as cell-based. How it is done:
as §1, §2

The next series has as its target T1, CYP2C8 (Homo sapiens, UniProt P10632).
T1 sequence (P10632 1-490): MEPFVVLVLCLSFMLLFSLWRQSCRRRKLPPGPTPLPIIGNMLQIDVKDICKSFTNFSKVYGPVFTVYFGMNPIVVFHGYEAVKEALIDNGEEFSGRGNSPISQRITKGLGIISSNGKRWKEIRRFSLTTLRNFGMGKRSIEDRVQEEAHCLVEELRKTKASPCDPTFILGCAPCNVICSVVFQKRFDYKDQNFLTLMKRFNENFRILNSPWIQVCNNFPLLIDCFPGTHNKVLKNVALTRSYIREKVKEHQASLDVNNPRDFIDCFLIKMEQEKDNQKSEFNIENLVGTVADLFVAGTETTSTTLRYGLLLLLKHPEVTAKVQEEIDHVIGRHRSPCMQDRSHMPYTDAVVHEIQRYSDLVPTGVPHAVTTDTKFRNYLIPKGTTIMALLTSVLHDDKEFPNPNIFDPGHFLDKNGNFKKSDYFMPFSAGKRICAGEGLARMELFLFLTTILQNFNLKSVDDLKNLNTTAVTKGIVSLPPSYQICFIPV
In words: Inhibition of CYP2C8 supersome-mediated EET biosynthesis. It is filed as biochemical. Conditions: FIG. 2, read-out: IC50 for inhibition of EET synthesis. How it is done:
as §1, §2

Chain of EGFR type I kinase (P00533 25-1210): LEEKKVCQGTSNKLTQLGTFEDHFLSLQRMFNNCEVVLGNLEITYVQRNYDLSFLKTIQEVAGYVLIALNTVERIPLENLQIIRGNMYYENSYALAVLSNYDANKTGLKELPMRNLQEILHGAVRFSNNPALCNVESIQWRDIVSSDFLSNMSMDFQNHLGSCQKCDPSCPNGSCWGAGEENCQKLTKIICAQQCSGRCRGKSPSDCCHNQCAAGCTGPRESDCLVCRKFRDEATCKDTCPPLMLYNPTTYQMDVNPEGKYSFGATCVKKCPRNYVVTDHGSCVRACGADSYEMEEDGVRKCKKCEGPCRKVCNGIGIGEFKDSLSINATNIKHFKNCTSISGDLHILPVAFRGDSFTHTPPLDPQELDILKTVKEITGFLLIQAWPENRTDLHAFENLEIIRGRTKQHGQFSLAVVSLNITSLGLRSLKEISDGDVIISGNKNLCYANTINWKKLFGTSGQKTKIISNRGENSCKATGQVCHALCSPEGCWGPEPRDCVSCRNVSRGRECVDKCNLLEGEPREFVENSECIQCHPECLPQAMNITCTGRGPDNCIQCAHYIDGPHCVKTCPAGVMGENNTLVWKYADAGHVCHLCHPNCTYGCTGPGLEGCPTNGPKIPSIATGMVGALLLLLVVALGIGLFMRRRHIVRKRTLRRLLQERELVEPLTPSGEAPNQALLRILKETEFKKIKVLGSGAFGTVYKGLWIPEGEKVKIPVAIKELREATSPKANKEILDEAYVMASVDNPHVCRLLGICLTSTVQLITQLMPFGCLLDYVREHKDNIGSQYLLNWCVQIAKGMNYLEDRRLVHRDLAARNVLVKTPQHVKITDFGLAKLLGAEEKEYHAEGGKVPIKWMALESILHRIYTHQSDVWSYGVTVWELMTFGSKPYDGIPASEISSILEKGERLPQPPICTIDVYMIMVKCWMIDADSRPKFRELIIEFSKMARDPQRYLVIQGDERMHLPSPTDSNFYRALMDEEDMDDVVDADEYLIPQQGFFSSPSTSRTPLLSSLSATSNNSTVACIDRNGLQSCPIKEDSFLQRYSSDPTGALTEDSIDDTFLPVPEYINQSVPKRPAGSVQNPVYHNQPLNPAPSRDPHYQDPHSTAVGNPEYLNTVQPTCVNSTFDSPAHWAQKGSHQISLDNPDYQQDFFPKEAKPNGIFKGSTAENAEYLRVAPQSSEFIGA
Chain of CYP3A4 (P08684 whole entry): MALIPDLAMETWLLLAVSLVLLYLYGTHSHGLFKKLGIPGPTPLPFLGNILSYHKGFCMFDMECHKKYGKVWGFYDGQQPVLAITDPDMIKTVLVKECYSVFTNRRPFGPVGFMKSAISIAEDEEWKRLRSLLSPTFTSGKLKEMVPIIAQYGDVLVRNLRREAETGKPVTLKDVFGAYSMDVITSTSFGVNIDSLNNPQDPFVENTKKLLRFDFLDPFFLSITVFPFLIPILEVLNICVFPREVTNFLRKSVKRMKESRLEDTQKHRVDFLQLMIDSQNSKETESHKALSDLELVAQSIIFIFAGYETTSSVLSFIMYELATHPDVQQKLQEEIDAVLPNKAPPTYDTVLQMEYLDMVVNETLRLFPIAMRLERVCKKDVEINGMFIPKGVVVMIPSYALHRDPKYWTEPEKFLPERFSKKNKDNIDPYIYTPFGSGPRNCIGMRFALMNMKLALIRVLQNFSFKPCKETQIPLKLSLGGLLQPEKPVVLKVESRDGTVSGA

For the compound `C=CC(=O)N1CCC(Oc2cc3c(Nc4ccc(Cl)c(Cl)c4F)ncnc3cc2OC)CC1` [Poziotinib, 1-(4-((4-((3,4-dichloro-2-fluorophenyl)amino)-7-methoxyquinazolin-6-yl)oxy)piperidin-1-yl)prop-2-en-1-one], in series [1], the “Inhibition of cell growth” value is reported as “inhibit cell growth”. The “Oxygen consumption rate (OCR) vs. DMSO” value with MCF7 is recorded as “reduced”. The pIC50 (in general, −log10 of the IC50, conventionally taken in molar units) at CYP3A4 was around 5.00; in series [2] it was around 5.52; on CYP2C8, around 5.00. Besides, the “Inhibition of EGFR type I kinase” value on EGFR type I kinase is “inhibit EGFR type I kinase”.
